Experiments:
Test in all cases: relative viability (nuclei count vs DMSO), 5 days (fraction); higher = more cells survive
[1] = compound: C[C@H]([C@@H](C(=O)N)NC(=O)[C@@H]1CSSC[C@@H](C(=O)N[C@H](C(=O)N[C@@H](C(=O)N[C@H](C(=O)N1)CCCCN)CC2=CNC3=CC=CC=C32)CC4=CC=C(C=C4)O)NC(=O)[C@@H](CC5=CC=CC=C5)N)O [CAP-232] + Cc1nc(Nc2ncc(C(=O)Nc3c(C)cccc3Cl)s2)cc(N2CCN(CCO)CC2)n1 [Dasatinib] (partner 0.075 µM)
Summary of the method: (§1)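 Relative viability divides the nuclei count in treated wells by that in vehicle wells. Lung cancer cell lines were seeded in 1536-well plates, dosed by pin tool the next day, and fixed and stained after 5 days in one step with final 0.05% Triton X-100, 1% formaldehyde and 1 ug/ml Hoechst. Dosing was a single drug or a fixed anchor-drug dose plus five library-drug doses (not always all listed) in √10 steps, and values are medians of duplicate plates imaged at 4×.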

[2] = compound: C[C@H]([C@@H](C(=O)N)NC(=O)[C@@H]1CSSC[C@@H](C(=O)N[C@H](C(=O)N[C@@H](C(=O)N[C@H](C(=O)N1)CCCCN)CC2=CNC3=CC=CC=C32)CC4=CC=C(C=C4)O)NC(=O)[C@@H](CC5=CC=CC=C5)N)O [CAP-232] + Cc1nc(NC(=O)N2CCC[C@H]2C(N)=O)sc1-c1ccnc(C(C)(C)C(F)(F)F)c1 [Alpelisib] (partner 2 µM)
Summary of the method: as §1

[3] = compound: C[C@H]([C@@H](C(=O)N)NC(=O)[C@@H]1CSSC[C@@H](C(=O)N[C@H](C(=O)N[C@@H](C(=O)N[C@H](C(=O)N1)CCCCN)CC2=CNC3=CC=CC=C32)CC4=CC=C(C=C4)O)NC(=O)[C@@H](CC5=CC=CC=C5)N)O [CAP-232] + CS(=O)(=O)CCNCc1ccc(-c2ccc3ncnc(Nc4ccc(OCc5cccc(F)c5)c(Cl)c4)c3c2)o1 [Lapatinib] (partner 2 µM)
Summary of the method: as §1

[4] = compound: C[C@H]([C@@H](C(=O)N)NC(=O)[C@@H]1CSSC[C@@H](C(=O)N[C@H](C(=O)N[C@@H](C(=O)N[C@H](C(=O)N1)CCCCN)CC2=CNC3=CC=CC=C32)CC4=CC=C(C=C4)O)NC(=O)[C@@H](CC5=CC=CC=C5)N)O [CAP-232] + NC(=O)Nc1cc(-c2cccc(F)c2)sc1C(=O)N[C@H]1CCCNC1 [AZD7762] (partner 0.2 µM)
Summary of the method: as §1

[5] = compound: C[C@H]([C@@H](C(=O)N)NC(=O)[C@@H]1CSSC[C@@H](C(=O)N[C@H](C(=O)N[C@@H](C(=O)N[C@H](C(=O)N1)CCCCN)CC2=CNC3=CC=CC=C32)CC4=CC=C(C=C4)O)NC(=O)[C@@H](CC5=CC=CC=C5)N)O [CAP-232] + N=C(N)NC(=N)NCCc1ccccc1 [Phenformin] (partner 250 µM)
Summary of the method: as §1

Cell Line	relative viability ([1]; first compound 0.4 µM)	relative viability ([1]; first compound 1.265 µM)	relative viability ([1]; first compound 4 µM)	relative viability ([1]; first compound 12.65 µM)	relative viability ([2]; first compound 0.4 µM)	relative viability ([2]; first compound 1.265 µM)	relative viability ([2]; first compound 4 µM)	relative viability ([2]; first compound 12.65 µM)	relative viability ([3]; first compound 0.4 µM)	relative viability ([3]; first compound 1.265 µM)	relative viability ([3]; first compound 4 µM)	relative viability ([3]; first compound 12.65 µM)	relative viability ([4]; first compound 0.4 µM)	relative viability ([4]; first compound 1.265 µM)	relative viability ([4]; first compound 4 µM)	relative viability ([4]; first compound 12.65 µM)	relative viability ([5]; first compound 0.4 µM)	relative viability ([5]; first compound 1.265 µM)	relative viability ([5]; first compound 4 µM)	relative viability ([5]; first compound 12.65 µM)
HCC-366	0.71	0.568	0.771	0.685	0.488	0.337	0.521	0.243	1.17	1.05	1.02	1	0.399	0.328	0.308	0.374	0.6	0.588	0.66	0.631
HCC-827	0.312	0.302	0.312	0.23	0.913	0.925	0.967	0.919	0.224	0.175	0.177	0.177	0.19	0.204	0.174	0.182	0.409	0.384	0.387	0.418
HOP-62	0.703	0.667	0.655	0.547	0.967	–	1.17	1.29	1.06	–	1.33	0.996	0.883	0.482	0.981	0.607	0.71	0.675	0.72	0.55
LC-2-ad	0.907	0.525	0.547	0.26	0.931	0.823	0.804	0.824	1.07	0.891	0.949	1.09	0.917	0.815	0.919	0.688	0.707	0.514	0.603	0.257
LCLC-97TM1	0.896	0.889	0.82	0.851	0.252	0.228	0.285	0.244	1.13	1.15	1.05	0.946	0.442	0.238	0.341	0.429	0.462	0.387	0.463	0.422
LK-2	0.295	0.133	0.202	0.201	1.02	1.15	1.2	1.75	0.942	1.06	0.808	0.759	0.357	0.274	0.322	0.376	0.47	0.302	0.389	0.415
LOU-NH91	0.593	0.548	0.618	0.437	0.738	0.771	0.699	0.58	0.781	0.771	0.821	0.639	0.857	0.758	0.799	0.287	0.725	0.752	0.769	0.487
LU99A	0.769	0.493	0.675	0.492	0.515	0.517	0.471	0.497	0.964	1.03	1.13	1.05	0.422	0.359	0.269	0.335	0.866	0.751	0.839	0.8
LXF-289	0.224	0.194	0.238	0.21	1.13	1.08	1.1	1.02	0.952	0.903	0.914	0.953	1.19	1.16	1.15	1.27	0.508	0.519	0.512	0.554
NCI-H23	0.714	0.609	0.891	0.844	0.848	0.743	0.714	0.668	0.949	1.03	1.07	0.828	0.286	0.236	0.239	0.22	0.84	0.813	0.833	0.678
NCI-H322M	0.275	0.237	0.256	0.34	0.778	0.753	0.709	0.755	0.558	0.492	0.69	0.589	0.827	0.645	0.528	0.556	0.873	0.709	0.759	0.862
NCI-H358	0.183	0.151	0.124	0.179	0.508	0.821	0.868	0.789	0.395	0.393	0.436	0.445	0.466	0.406	0.376	0.318	0.319	0.295	0.278	0.315
NCI-H460	0.704	0.478	0.581	0.419	0.512	0.541	0.595	0.211	1.11	1.02	1.62	0.773	0.856	0.58	0.734	0.416	0.634	0.529	0.567	0.307
NCI-H596	0.502	0.615	0.536	0.615	0.558	0.512	0.497	0.507	1.13	1.03	1.01	0.974	1.1	1.13	1.05	1.09	0.679	0.604	0.899	0.653
NCI-H647	0.259	0.155	0.179	0.125	1.18	1.16	1.37	0.761	1.07	1.14	1.39	0.469	0.767	0.33	0.696	0.282	0.434	0.561	0.637	0.401
NCI-H650	0.509	0.426	0.521	0.417	0.997	1.3	0.997	0.825	1.17	0.879	0.966	0.958	1.29	1.03	1.02	0.951	0.443	0.416	0.472	0.413
NCI-H727	0.301	0.362	0.38	0.335	–	0.59	0.633	0.59	–	0.792	0.826	0.719	0.572	0.586	0.612	0.617	0.511	0.488	0.536	0.533
NCI-H838	0.364	0.249	0.403	0.25	1.08	0.944	1.12	0.644	0.976	0.974	1.14	0.499	1.05	0.995	0.989	0.823	0.609	0.53	0.593	0.537
NCI-H1355	0.847	0.736	0.618	0.5	0.845	0.842	0.963	0.864	1.11	1.06	1.19	1.01	0.794	0.82	0.872	0.706	0.517	0.467	0.43	0.418
NCI-H1395	0.413	0.445	0.426	0.388	0.888	1.08	0.912	0.848	1.01	0.933	1.09	0.911	0.511	–	0.423	0.224	0.46	0.4	0.448	0.453
NCI-H1437	0.547	0.343	0.358	0.416	0.901	1.04	1.05	0.768	0.806	0.853	0.795	0.583	1.15	1.11	1.09	1.05	0.297	0.307	0.327	0.254
NCI-H1651	0.357	0.395	0.465	0.33	1.01	0.841	1.08	0.728	0.944	0.834	0.913	0.484	0.487	0.429	0.553	0.481	0.407	0.32	0.352	0.25
NCI-H1666	0.904	0.757	0.893	0.678	0.991	–	1.05	0.816	0.687	–	0.65	0.378	0.918	0.882	0.859	0.908	0.611	0.575	0.573	0.593
NCI-H1734	0.45	0.459	0.461	0.446	0.611	0.662	0.755	0.702	1	1	0.95	0.73	0.637	0.578	0.527	0.426	0.369	0.321	0.387	0.264
NCI-H1755	0.358	0.461	0.48	0.372	0.984	0.91	1.1	0.763	1.13	0.984	1.23	1.02	0.453	0.396	0.536	0.403	0.676	0.626	0.622	0.582
NCI-H1792	0.811	0.743	0.95	0.78	0.825	0.823	0.819	0.399	1.48	0.917	0.95	0.856	0.892	0.715	0.793	0.757	0.129	0.193	0.247	0.188
NCI-H1793	0.382	0.365	0.393	0.367	0.829	0.669	0.573	0.627	0.563	0.625	0.75	0.745	0.437	0.618	0.518	0.524	0.4	0.367	0.329	0.372
NCI-H1915	0.326	0.31	0.303	0.287	1.05	1.02	1.04	1.06	1.04	0.957	1.04	0.982	0.771	0.685	0.704	0.762	0.419	0.356	0.407	0.397
NCI-H1944	0.215	0.197	0.21	0.182	0.956	0.806	0.794	0.782	0.942	0.729	0.998	0.773	0.516	0.476	0.452	0.367	0.211	0.207	0.221	0.181
